Experimental data reported in ChEMBL document CHEMBL2311501, “Discovery and preliminary structure-activity relationship analysis of 1,14-sperminediphenylacetamides as potent and selective antimalarial lead compounds” (Bioorg Med Chem Lett, 2013).

Legend:
[1] = test system: Trypanosoma brucei rhodesiense; test: Antiprotozoal activity against Trypanosoma brucei rhodesiense STIB 900 after 72 hrs by Alamar blue assay; type: functional, organism-based; conditions: STIB 900, 72 h
[2] = test system: Plasmodium falciparum; test: Antiprotozoal activity against erythrocytic stages of Plasmodium falciparum K1 by [3H]hypoxanthine incorporation assay; type: functional, organism-based
[3] = test system: L6; test: Cytotoxicity against rat L6 cells after 72 hrs by Alamar blue assay; type: cell-based; conditions: L6, 72 h
[4] = test system: Leishmania donovani; test: Antiprotozoal activity against amastigote/ axenic stage of Leishmania donovani MHOM-ET-67/L82 after 72 hrs by Alamar blue assay; type: functional, organism-based; conditions: MHOM-ET-67/L82, 72 h
[5] = test system: Trypanosoma cruzi; test: Antiprotozoal activity against Trypanosoma cruzi Tulahuen C4 amastigotes after 96 hrs; type: functional, organism-based; conditions: Tulahuen C4, 96 h
[6] = test system: L6; test: Cytotoxicity against rat L6 cells at 10 uM after 72 hrs by Alamar blue assay; type: cell-based; conditions: l6, 72 h

Structure (SMILES)	IC50 [1] [µM]	IC50 [2] [µM]	IC50 [5] [µM]	IC50 [3] [µM]	IC50 [4] [µM]	Activity [6]
COc1cc([C@@H]2c3cc4c(cc3[C@H](O)[C@H]3COC(=O)[C@H]23)OCO4)cc(OC)c1OC [PODOFILOX]				0.019		
COc1cc(CC(=O)NCCCOCCOCCOCCCNC(=O)Cc2ccc(O)c(OC)c2)ccc1O	110	> 9.1	> 160	> 160	150	
COc1cc(CC(=O)NCCN2CCOCC2)ccc1O	150	> 12	> 220	210	> 220	
O=C(Cc1ccccc1)NCCCCNC(=O)Cc1ccccc1	110	> 15	> 280	> 280	> 280	
O=C(Cc1ccc(O)c(O)c1)NCCCOCCOCCOCCCNC(=O)Cc1ccc(O)c(O)c1	5.2	> 9.6	> 170	96	> 170	
COc1cc(CC(=O)NCCN(C)C)ccc1O	170	> 14	> 250	> 250	> 250	
COc1cc(CC(=O)NCCCNCCNC(=O)Cc2ccc(O)c(OC)c2)ccc1O	110	> 8.9	> 160	> 160	> 160	
O=C(Cc1cccc(O)c1)NCCCNCCNC(=O)Cc1cccc(O)c1	120	> 10	> 180	> 180	> 180	
O=C(Cc1ccc(O)c(O)c1)NCCCNCCNC(=O)Cc1ccc(O)c(O)c1	7.5	> 9.4	> 170	140	> 170	Non-toxic
O=C(Cc1ccccc1)NCCCOCCOCCOCCCNC(=O)Cc1ccccc1	63	> 11	> 200	> 200	> 200	
COc1cc(CC(=O)NCCCCNC(=O)Cc2ccc(O)c(OC)c2)ccc1O	210	> 12	> 220	> 220	> 220	
O=C(Cc1ccc(O)c(O)c1)NCCCCNC(=O)Cc1ccc(O)c(O)c1	3.3	> 13	> 230	130	> 230	

Second part, led by results:

IC50 [1] [µM]	IC50 [2] [µM]	IC50 [5] [µM]	Structure (SMILES)	IC50 [3] [µM]	IC50 [4] [µM]	Activity [6]
120	> 6.8	> 120	COc1cc(CC(=O)NCCCNCCNCCCNC(=O)Cc2ccc(O)c(OC)c2)ccc1O	> 120	> 120	
51	0.0086	> 130	O=C(Cc1ccccc1O)NCCCNCCCCNCCCNC(=O)Cc1ccccc1O	> 130	110	Non-toxic
49	0.61	> 130	O=C(Cc1ccccc1O)NCCCNCCNCCCNC(=O)Cc1ccccc1O	> 130	> 130	Non-toxic
38	0.019	31	COc1ccc(OC)c(CC(=O)NCCCNCCCCNCCCNC(=O)Cc2cc(OC)ccc2OC)c1	88	35	Non-toxic
	35		NCCCNCCCCNCCCNC(=O)Cc1ccccc1	94		
87	0.17	> 130	O=C(Cc1cccc(O)c1)NCCCNCCCCNCCCNC(=O)Cc1cccc(O)c1	> 130	> 130	Non-toxic
120	3.6	> 170	O=C(Cc1ccc(O)cc1)NCCCCNCCCNC(=O)Cc1ccc(O)cc1	> 170	> 170	
150	> 8.5	> 150	COc1cc(CC(=O)NCCCCNCCCNC(=O)Cc2ccc(O)c(OC)c2)ccc1O	> 150	> 150	
3.2	4.8	> 120	O=C(Cc1ccc(O)c(O)c1)NCCCNCCCCNCCCNC(=O)Cc1ccc(O)c(O)c1	85	> 120	Non-toxic
5.9	7.9	> 160	O=C(Cc1ccc(O)c(O)c1)NCCCCNCCCNC(=O)Cc1ccc(O)c(O)c1	97	> 160	Non-toxic
96	0.14	> 140	O=C(Cc1ccccc1)NCCCNCCCCNCCCNC(=O)Cc1ccccc1	> 140	90	Non-toxic
	8		O=C(Cc1ccccc1)NCCCNCCCCNCCCNC(=O)C(F)(F)F	110		
86	0.14	> 130	O=C(Cc1ccc(O)cc1)NCCCNCCCCNCCCNC(=O)Cc1ccc(O)cc1	130	> 130	Non-toxic
78	0.89	> 120	COc1cc(CC(=O)NCCCNCCCCNCCCNC(=O)Cc2ccc(O)c(OC)c2)ccc1O	> 120	> 120	Non-toxic
